Source: PubChem BioAssay (NCI)
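48-hour exposure; five concentrations; linearly interpolated endpoints. Here, GI50 denotes the concentration required for 50% inhibition of growth. At the TGI there is no net growth.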

Experiments:
Assay in all cases: NCI anticancer screen, dose series, 48 h
[1] = tested on: CCRF-CEM leukemia
[2] = tested on: HL-60(TB) leukemia
[3] = tested on: IGROV1 ovarian
[4] = tested on: MDA-MB-435
[5] = tested on: NCI-H226 lung
[6] = tested on: OVCAR-5 ovarian
[7] = tested on: SK-MEL-28 melanoma
[8] = tested on: SN12C renal
[9] = tested on: UO-31 renal
[10] = tested on: HOP-92 NSCLC

SMILES: CC1=CC[C@@H]2[C@@H](CC[C@@]2(C)O)C(C)(C)[C@H]1CC[C@@H]1[C@@]2(C)CCC(=O)C(C)(C)O[C@@H]2CC[C@]1(C)O
- TGI [1]: 48 µM
- TGI [2]: 35 µM
- TGI [3]: 76.5 µM
- TGI [4]: > 100 µM
- TGI [5]: 63.5 µM
- TGI [6]: > 100 µM
- TGI [7]: > 100 µM
- TGI [8]: 42.3 µM
- TGI [9]: 49 µM

SMILES: Cc1cccc(C)c1NC(=O)CCC(=O)NNC(=O)c1cc(O)c2ccccc2c1
- TGI [1]: 72.5 µM
- TGI [2]: 95.2 µM
- TGI [10]: > 100 µM
- TGI [3]: > 100 µM
- TGI [5]: > 100 µM
- TGI [6]: > 100 µM
- TGI [7]: > 100 µM
- TGI [8]: > 100 µM
- TGI [9]: > 100 µM

SMILES: Cc1c(/C=C2\CC/C(=C\c3[nH]c(C(=O)OC(C)(C)C)c(C)c3C)C2=O)[nH]c(C(=O)OC(C)(C)C)c1C
- TGI [1]: > 100 µM
- TGI [2]: > 100 µM
- TGI [10]: > 100 µM
- TGI [3]: > 100 µM
- TGI [5]: > 100 µM
- TGI [6]: > 100 µM
- TGI [8]: > 100 µM
- TGI [9]: > 100 µM

SMILES: O=C(/C=C/c1ccc(OCCCCCCCCCCOc2ccc(/C=C/C(=O)c3ccc(Cl)cc3)cc2)cc1)c1ccc(Cl)cc1
- TGI [1]: > 100 µM
- TGI [2]: > 100 µM
- TGI [10]: > 100 µM
- TGI [3]: > 100 µM
- TGI [5]: > 100 µM
- TGI [6]: > 100 µM
- TGI [7]: > 100 µM
- TGI [8]: > 100 µM
- TGI [9]: > 100 µM

SMILES: CCCCN(CC)C(=O)C(=O)C1C(=O)Nc2ccccc2S1=O (centres undefined)
- TGI [1]: > 100 µM
- TGI [10]: > 100 µM
- TGI [3]: > 100 µM
- TGI [5]: > 100 µM
- TGI [6]: > 100 µM
- TGI [7]: > 100 µM
- TGI [8]: > 100 µM
- TGI [9]: > 100 µM

SMILES: COC(=O)OCC1OC(N2C(=O)NC(=O)C(I)C2N=[N+]=[N-])CC1OC(=O)OC (centres undefined)
- TGI [1]: > 100 µM
- TGI [2]: > 100 µM
- TGI [10]: > 100 µM
- TGI [3]: > 100 µM
- TGI [5]: > 100 µM
- TGI [6]: > 100 µM
- TGI [7]: > 100 µM
- TGI [8]: > 100 µM
- TGI [9]: > 100 µM

SMILES: N#C/C(=C\c1ccc(CP(=O)(O)O)cc1)C(N)=O
- TGI [1]: > 100 µM
- TGI [2]: > 100 µM
- TGI [10]: > 100 µM
- TGI [3]: > 100 µM
- TGI [5]: > 100 µM
- TGI [6]: > 100 µM
- TGI [7]: > 100 µM
- TGI [8]: > 100 µM
- TGI [9]: > 100 µM

SMILES: COc1ccc(-c2nc(-c3nc4ccc(F)cc4[nH]3)cc3c2[nH]c2ccccc23)cc1
- GI50 [1]: 2.29 µM
- TGI [1]: 25.6 µM
- GI50 [2]: 2.83 µM
- TGI [2]: 7.23 µM
- GI50 [3]: 2.49 µM
- TGI [3]: 9.7 µM
- GI50 [4]: 2.58 µM
- TGI [4]: 13.4 µM
- GI50 [5]: 3.12 µM
- TGI [5]: > 100 µM
- GI50 [6]: 4.46 µM
- TGI [6]: > 100 µM
- GI50 [7]: 3.4 µM
- TGI [7]: > 100 µM
- GI50 [8]: 2.97 µM
- TGI [8]: > 100 µM
- GI50 [9]: 2.54 µM
- TGI [9]: 8.74 µM

SMILES: COc1cc2c(cc1O)[C@H](C)C(c1ccc(Cl)cc1)O2 (some centres undefined)
- TGI [1]: 39 µM
- TGI [2]: 35.6 µM
- TGI [10]: 40.4 µM
- TGI [3]: > 100 µM
- TGI [5]: 70 µM
- TGI [6]: > 100 µM
- TGI [7]: > 100 µM
- TGI [9]: 79.4 µM

SMILES: OCC(O)CC[CH2][Sn]([c]1ccccc1)([c]1ccccc1)[c]1ccccc1 (centres undefined)
- GI50 [1]: 13.7 µM
- TGI [1]: 41.6 µM
- GI50 [2]: 11.3 µM
- TGI [2]: 35.3 µM
- GI50 [10]: 10.9 µM
- TGI [10]: 24 µM
- GI50 [3]: 16.3 µM
- TGI [3]: 33.7 µM
- GI50 [5]: 19 µM
- TGI [5]: 70.8 µM
- GI50 [6]: 14.9 µM
- TGI [6]: 28.3 µM
- GI50 [8]: 15.1 µM
- TGI [8]: 30.8 µM
- GI50 [9]: 14.8 µM
- TGI [9]: 28.4 µM

SMILES: O=c1cc2n(c(=O)[nH]1)C1OC(C(O)C1O)[C@@H]2CCO (some centres undefined)
- TGI [1]: > 100 µM
- TGI [2]: > 100 µM
- TGI [10]: > 100 µM
- TGI [3]: > 100 µM
- TGI [6]: > 100 µM
- TGI [7]: > 100 µM
- TGI [8]: > 100 µM
- TGI [9]: > 100 µM

SMILES: COc1cc2c(-c3nc4cc(Cl)c(F)cc4s3)cc(=O)oc2c(C)c1OC
- GI50 [10]: 0.498 µM
- TGI [10]: 2.16 µM
- GI50 [3]: 0.207 µM
- TGI [3]: 0.662 µM
- GI50 [4]: 1.77 µM
- TGI [4]: 3.76 µM
- GI50 [5]: 1.72 µM
- TGI [5]: 3.99 µM
- GI50 [6]: 1.8 µM
- TGI [6]: 3.39 µM
- GI50 [7]: 1.81 µM
- TGI [7]: 3.49 µM
- GI50 [9]: 0.154 µM
- TGI [9]: 0.339 µM

SMILES: O=c1/c(=C/c2cccc3ccccc23)sc2nc3ccccc3n12
- TGI [2]: > 100 µM
- TGI [10]: > 100 µM
- TGI [3]: > 100 µM
- TGI [5]: > 100 µM
- TGI [6]: > 100 µM
- TGI [7]: > 100 µM
- TGI [8]: > 100 µM
- TGI [9]: > 100 µM

SMILES: Nc1nc2ncn(CCO)c2c(=O)[nH]1
- TGI [1]: > 100 µM
- TGI [2]: > 100 µM
- TGI [10]: > 100 µM
- TGI [5]: > 100 µM
- TGI [6]: > 100 µM
- TGI [7]: > 100 µM
- TGI [8]: > 100 µM
- TGI [9]: > 100 µM

SMILES: COc1cc(-c2c3c(cn2S(=O)(=O)c2ccccc2)-c2nc(N)sc2CC3)cc(OC)c1OC
- GI50 [2]: 0.385 µM
- TGI [2]: 4.32 µM
- GI50 [10]: 0.407 µM
- TGI [10]: 8.34 µM
- GI50 [3]: 2.23 µM
- TGI [3]: 75.1 µM
- GI50 [4]: 0.238 µM
- TGI [4]: 0.791 µM
- GI50 [5]: 11.2 µM
- TGI [5]: 47.4 µM
- GI50 [6]: 4.25 µM
- TGI [6]: > 100 µM
- GI50 [7]: 1.12 µM
- TGI [7]: 29.8 µM
- GI50 [8]: 4.45 µM
- TGI [8]: > 100 µM
- GI50 [9]: 2.98 µM
- TGI [9]: > 100 µM

SMILES: CC(C)C1CN1CC(O)Cn1ccnc1[N+](=O)[O-] (centres undefined)
- TGI [1]: > 100 µM
- TGI [3]: > 100 µM
- TGI [5]: > 100 µM
- TGI [6]: > 100 µM
- TGI [7]: > 100 µM
- TGI [8]: > 100 µM
- TGI [9]: > 100 µM

SMILES: O=C1c2ccn(CCCCN3CCOCC3)c2C(=O)c2c1c(O)c1ccccc1c2O
- GI50 [1]: 2.75 µM
- TGI [1]: > 100 µM
- GI50 [2]: 9.07 µM
- TGI [2]: 59.9 µM
- GI50 [3]: 20.5 µM
- TGI [3]: > 100 µM
- GI50 [4]: 2.13 µM
- TGI [4]: 4.62 µM
- GI50 [5]: 5.32 µM
- TGI [5]: 42.5 µM
- GI50 [6]: 11.1 µM
- TGI [6]: 23.8 µM
- GI50 [7]: 25.8 µM
- TGI [7]: > 100 µM
- GI50 [8]: 11.4 µM
- TGI [8]: 24 µM
- GI50 [9]: 27.5 µM
- TGI [9]: > 100 µM

SMILES: CS(=O)(=O)C1S(=O)(=O)OCCOS1(=O)=O
- TGI [2]: > 100 µM
- TGI [10]: > 100 µM
- TGI [3]: > 100 µM
- TGI [5]: > 100 µM
- TGI [6]: > 100 µM
- TGI [7]: > 100 µM
- TGI [8]: > 100 µM
- TGI [9]: > 100 µM

SMILES: COC(=O)N1[C@H]2Cc3c(OC)c(C)c(OC)c(OC)c3[C@@H]1/C(=C\c1cc(OC)c(OC)c(C)c1OC)N(Cc1ccccc1)C2=O
- TGI [1]: > 100 µM
- TGI [2]: 30.2 µM
- TGI [10]: > 100 µM
- TGI [3]: > 100 µM
- TGI [5]: 11.7 µM
- TGI [6]: > 100 µM
- TGI [7]: > 100 µM
- TGI [8]: > 100 µM
- TGI [9]: > 100 µM

SMILES: CS(=O)(=O)NNS(=O)(=O)c1ccc(Br)cc1
- TGI [1]: > 100 µM
- TGI [2]: > 100 µM
- TGI [10]: > 100 µM
- TGI [3]: > 100 µM
- TGI [5]: > 100 µM
- TGI [6]: > 100 µM
- TGI [7]: > 100 µM
- TGI [9]: > 100 µM
